Format in all cases: cell-based
For one experiment, the system named is Pr. rettgeri GN624. Description: MIC against Pr. rettgeri GN624. The conditions noted are these: Providencia rettgeri. An excerpt:
(§1) The compounds (I) of this invention are clearly different from various cephem derivatives described in Japanese Patent Pre-publication ("Kokai") No. 25551/78 and U.S. Pat. No. 4,226,866 in respect of the presence of a lower alkyl group at 2-position of the cephem nucleus. […] Minimum inhibitory concentrations (M.I.C.) (μg/ml) of the compounds (I) to various bacteria are set out in Table 1 below.

The next experiment has as its system Pr. vulgaris GN76. The experiment in a line: MIC against Pr. vulgaris GN76. To be noted: Proteus vulgaris.
Excerpt: as §1

For another experiment, the system named is Ps. aeruginosa. Description: MIC against Ps. aeruginosa. The conditions noted are these: Pseudomonas aeruginosa.
Excerpt: as §1

Another experiment relates to Ser. marcescens No. 2. Description: MIC against Ser. marcescens No. 2. The conditions noted are these: Serratia marcescens.
Excerpt: as §1

The test system of another experiment is S. typhimurium LT-2. Description: MIC against S. typhimurium LT-2. To be noted: Salmonella enterica.
Excerpt: as §1

A further experiment relates to Staph. aureus Smith. The experiment in a line: MIC against Staph. aureus Smith. The conditions noted are these: Staphylococcus aureus.
Excerpt: as §1

Another experiment deals with Kl. pneumoniae PCI 602. The experiment in a line: MIC against Kl. pneumoniae PCI 602. The conditions noted are these: Klebsiella pneumoniae, PCI602.
Excerpt: as §1

A further experiment concerns Staph. aureus 209P JC-1. Description: MIC against Staph. aureus 209P JC-1. The conditions noted are these: Staphylococcus aureus.
Excerpt: as §1

The subject of another experiment is C. freundii CN346. The experiment in a line: MIC against C. freundii CN346. The conditions noted are these: Citrobacter freundii.
Excerpt: as §1

For a further experiment, the system named is Ent. cloacae G-0006. Description: MIC against Ent. cloacae G-0006. The conditions noted are these: Enterobacter cloacae, G0006.
Excerpt: as §1

A further experiment concerns Pr. mirabilis GN79. The experiment in a line: MIC against Pr. mirabilis GN79. To be noted: Proteus mirabilis.
Excerpt: as §1

Setting [1] is: Pr. vulgaris GN76, read-out: MIC.
Where [2] appears, read: Ser. marcescens No. 2, read-out: MIC.
Where [3] appears, read: S. typhimurium LT-2, read-out: MIC.
The mark [4] stands for this setting: C. freundii CN346, read-out: MIC.

The MIC is the lowest concentration that inhibits growth of the organism.

Structures are written as SMILES. In brackets after ≈: the same amount, converted by molar mass. Like-named read-outs stand apart in the source and are kept apart here. Bounds are passed on as bounds.

Regarding `C[C@H]1O[C@@H]2[C@H](NC(=O)Cc3cccs3)C(=O)N2C(C(=O)O)=C1CSc1nnnn1C` [compound 1, 7-(2-Thienylacetamido)-2α-methyl-3-(1-methyl-1H--tetrazole-5-yl)thiomethyl-1-oxa-1-dethia-3-cephem-4-carboxylic acid], the minimal inhibitory concentration (MIC) in the experiment on Pr. rettgeri GN624 was determined as 0.05 µg/mL (≈ 0.111 µM); with Pr. vulgaris GN76 (setting [1]) it was 0.1 µg/mL (≈ 0.222 µM); in the experiment with Ps. aeruginosa, 12.5 µg/mL (≈ 27.7 µM); in the experiment on Ser. marcescens No. 2 (setting [2]), 0.1 µg/mL (≈ 0.222 µM); in the experiment with S. typhimurium LT-2 (setting [3]) it was 0.025 µg/mL (≈ 0.0555 µM); in the experiment with Staph. aureus Smith, 0.2 µg/mL (≈ 0.444 µM). Moreover, the MIC in the experiment with Kl. pneumoniae PCI 602 is 0.1 µg/mL (≈ 0.222 µM); against Staph. aureus 209P JC-1, 0.2 µg/mL (≈ 0.444 µM); with C. freundii CN346 (setting [4]) it was 3.13 µg/mL (≈ 6.95 µM); in the experiment on Ent. cloacae G-0006, 25 µg/mL (≈ 55.5 µM); with Pr. mirabilis GN79, 0.1 µg/mL (≈ 0.222 µM).
Consider `C[C@@H]1O[C@@H]2[C@H](NC(=O)Cc3cccs3)C(=O)N2C(C(=O)O)=C1CSc1nnnn1C` [compound 2, 7-(2-Thienylacetamido)-2β-methyl-3-(1-methyl-1H--tetrazole-5-yl)thiomethyl-1-oxa-1-dethia-3-cephem-4-carboxylic acid], for which the MIC against Pr. rettgeri GN624 was 12.5 µg/mL (≈ 27.7 µM); against Pr. vulgaris GN76 (GN76), 1.56 µg/mL (≈ 3.46 µM); against Ps. aeruginosa, greater than 100 µg/mL; with Ser. marcescens No. 2 (setting [2]) it was 6.25 µg/mL (≈ 13.9 µM); in the experiment on S. typhimurium LT-2 (setting [3]) it was 0.1 µg/mL (≈ 0.222 µM); in the experiment on Staph. aureus Smith, 0.05 µg/mL (≈ 0.111 µM). Also, the minimal inhibitory concentration (MIC) amounted to 1.56 µg/mL (≈ 3.46 µM) against Kl. pneumoniae PCI 602; 0.025 µg/mL (≈ 0.0555 µM) against Staph. aureus 209P JC-1; 100 µg/mL (≈ 222 µM) with C. freundii CN346 (setting [4]); 100 µg/mL (≈ 222 µM) against Ent. cloacae G-0006; 12.5 µg/mL (≈ 27.7 µM) against Pr. mirabilis GN79.
Take `CO[C@@]1(NC(=O)Cc2cccs2)C(=O)N2C(C(=O)O)=C(CSc3nnnn3C)[C@@H](C)O[C@@H]21` [compound 3, 7β-(2-Thienylacetamido)-7α-methoxy-2α-methyl-3-(1-methyl-1H--tetrazole-5-yl)thiomethyl-1-oxa-1-dethia-3-cephem-4-carboxylic acid]: the MIC is greater than 100 µg/mL with Pr. rettgeri GN624; 12.5 µg/mL (≈ 26 µM) in the experiment on Pr. vulgaris GN76 (setting [1]); greater than 100 µg/mL with Ps. aeruginosa; 12.5 µg/mL (≈ 26 µM) in the experiment with Ser. marcescens No. 2 (setting [2]); 1.56 µg/mL (≈ 3.25 µM) in the experiment with S. typhimurium LT-2 (TYPHIMURIUM); 0.39 µg/mL (≈ 0.812 µM) against Staph. aureus Smith. The MIC against Kl. pneumoniae PCI 602 was 25 µg/mL (≈ 52 µM); against Staph. aureus 209P JC-1 it was 0.39 µg/mL (≈ 0.812 µM); in the experiment with C. freundii CN346 (setting [4]), greater than 100 µg/mL; against Ent. cloacae G-0006, greater than 100 µg/mL; against Pr. mirabilis GN79, greater than 100 µg/mL.
Regarding `CO[C@@]1(NC(=O)Cc2cccs2)C(=O)N2C(C(=O)O)=C(CSc3nnnn3C)[C@H](C)O[C@@H]21` [compound 4, 7β-(2-Thienylacetamido)-7α-methoxy-2β-methyl-3-(1-methyl-1H--tetrazole-5-yl)thiomethyl-1-oxa-1-dethia-3-cephem-4-carboxylic acid], the MIC in the experiment with Pr. rettgeri GN624 is 25 µg/mL (≈ 52 µM); with Pr. vulgaris GN76 (setting [1]) it was 0.39 µg/mL (≈ 0.812 µM); against Ps. aeruginosa, greater than 100 µg/mL; against Ser. marcescens No. 2 (NO.2), 1.56 µg/mL (≈ 3.25 µM); in the experiment on S. typhimurium LT-2 (setting [3]), 0.05 µg/mL (≈ 0.104 µM); against Staph. aureus Smith it was 0.2 µg/mL (≈ 0.416 µM). Also, the MIC in the experiment with Kl. pneumoniae PCI 602 is 1.56 µg/mL (≈ 3.25 µM); in the experiment with Staph. aureus 209P JC-1, 0.2 µg/mL (≈ 0.416 µM); in the experiment on C. freundii CN346 (setting [4]), 100 µg/mL (≈ 208 µM); against Ent. cloacae G-0006, 100 µg/mL (≈ 208 µM); in the experiment with Pr. mirabilis GN79, 12.5 µg/mL (≈ 26 µM).
On to `CO[C@@]1(NC(=O)C(C(=O)O)c2cccs2)C(=O)N2C(C(=O)O)=C(CSc3nnnn3C)[C@@H](C)O[C@@H]21` (stereo partly drawn) [compound 5, 7β-[2-(2-Thienyl)-2-carboxyacetamido]-7α-methoxy-2α-methyl-3-(1-methyl-1H--tetrazole-5-yl)thiomethyl-1-oxa-1-dethia-3-cephem-4-carboxylic acid], for which the MIC amounted to 3.13 µg/mL (≈ 5.97 µM) in the experiment with Pr. rettgeri GN624; 0.39 µg/mL (≈ 0.744 µM) in the experiment on Pr. vulgaris GN76 (setting [1]); 100 µg/mL (≈ 191 µM) in the experiment with Ps. aeruginosa; 0.78 µg/mL (≈ 1.49 µM) with Ser. marcescens No. 2 (setting [2]); 0.1 µg/mL (≈ 0.191 µM) in the experiment with S. typhimurium LT-2 (setting [3]); 0.78 µg/mL (≈ 1.49 µM) in the experiment on Staph. aureus Smith. For the same compound, the minimal inhibitory concentration (MIC) amounted to 1.56 µg/mL (≈ 2.97 µM) against Kl. pneumoniae PCI 602; 0.78 µg/mL (≈ 1.49 µM) in the experiment on Staph. aureus 209P JC-1; 25 µg/mL (≈ 47.7 µM) in the experiment on C. freundii CN346 (setting [4]); 100 µg/mL (≈ 191 µM) against Ent. cloacae G-0006; 0.78 µg/mL (≈ 1.49 µM) against Pr. mirabilis GN79.
Take `CO[C@@]1(NC(=O)C(C(=O)O)c2cccs2)C(=O)N2C(C(=O)O)=C(CSc3nnnn3C)[C@H](C)O[C@@H]21` (stereo partly drawn) [compound 6, 7β-[2-(2-Thienyl)-2-carboxyacetamido]-7α-methoxy-2β-methyl-3-(1-methyl-1H--tetrazole-5-yl)thiomethyl-1-oxa-1-dethia-3-cephem-4-carboxylic acid]: the MIC was no more than 0.025 µg/mL with Pr. rettgeri GN624; 0.1 µg/mL (≈ 0.191 µM) in the experiment on Pr. vulgaris GN76 (setting [1]); 25 µg/mL (≈ 47.7 µM) in the experiment with Ps. aeruginosa; 0.2 µg/mL (≈ 0.381 µM) in the experiment on Ser. marcescens No. 2 (setting [2]); no more than 0.025 µg/mL with S. typhimurium LT-2 (setting [3]); 0.78 µg/mL (≈ 1.49 µM) in the experiment with Staph. aureus Smith. Further, the MIC was 1.56 µg/mL (≈ 2.97 µM) with Kl. pneumoniae PCI 602; 0.39 µg/mL (≈ 0.744 µM) against Staph. aureus 209P JC-1; 1.56 µg/mL (≈ 2.97 µM) against C. freundii CN346 (CN346); 6.25 µg/mL (≈ 11.9 µM) in the experiment with Ent. cloacae G-0006; 0.1 µg/mL (≈ 0.191 µM) against Pr. mirabilis GN79.
On to `CO[C@@]1(NC(=O)C(C(=O)O)c2ccsc2)C(=O)N2C(C(=O)O)=C(CSc3nnnn3C)[C@H](C)O[C@@H]21` (stereo partly drawn) [compound 7, 7β-[2-(3-Thienyl)-2-carboxyacetamido]-7α-methoxy-2β-methyl-3-(1-methyl-1H--tetrazole-5-yl)thiomethyl-1-oxa-1-dethia-3-cephem-4-carboxylic acid], for which the MIC in the experiment with Pr. rettgeri GN624 was 0.05 µg/mL (≈ 0.0953 µM); in the experiment on Pr. vulgaris GN76 (setting [1]), 0.1 µg/mL (≈ 0.191 µM); against Ps. aeruginosa it was 25 µg/mL (≈ 47.7 µM); in the experiment on Ser. marcescens No. 2 (setting [2]) it was 0.2 µg/mL (≈ 0.381 µM); in the experiment with S. typhimurium LT-2 (setting [3]) it was no more than 0.025 µg/mL; against Staph. aureus Smith it was 1.56 µg/mL (≈ 2.97 µM). The MIC came out at 0.05 µg/mL (≈ 0.0953 µM) with Kl. pneumoniae PCI 602; 1.56 µg/mL (≈ 2.97 µM) with Staph. aureus 209P JC-1; 1.56 µg/mL (≈ 2.97 µM) with C. freundii CN346 (setting [4]); 3.13 µg/mL (≈ 5.97 µM) in the experiment on Ent. cloacae G-0006; 0.2 µg/mL (≈ 0.381 µM) in the experiment on Pr. mirabilis GN79.
